Measured values reported in US20220056019A1, “FARNESOID X RECEPTOR AGONISTS AND USES THEREOF” (Metacrine, Inc., priority 2018, published 2022).

What follows are molecules tested against T1, hFXR (Homo sapiens, UniProt Q96RI1) (assay: In Vitro FXR Assay (TK): TK-ECRE-luc reporter in transfected CV-1 cells). Details: 18 hrs incubation, luminescence.
T1 construct: expressed in transfected cells; host or cells: CV-1 cells
T1 sequence (Q96RI1 1-486): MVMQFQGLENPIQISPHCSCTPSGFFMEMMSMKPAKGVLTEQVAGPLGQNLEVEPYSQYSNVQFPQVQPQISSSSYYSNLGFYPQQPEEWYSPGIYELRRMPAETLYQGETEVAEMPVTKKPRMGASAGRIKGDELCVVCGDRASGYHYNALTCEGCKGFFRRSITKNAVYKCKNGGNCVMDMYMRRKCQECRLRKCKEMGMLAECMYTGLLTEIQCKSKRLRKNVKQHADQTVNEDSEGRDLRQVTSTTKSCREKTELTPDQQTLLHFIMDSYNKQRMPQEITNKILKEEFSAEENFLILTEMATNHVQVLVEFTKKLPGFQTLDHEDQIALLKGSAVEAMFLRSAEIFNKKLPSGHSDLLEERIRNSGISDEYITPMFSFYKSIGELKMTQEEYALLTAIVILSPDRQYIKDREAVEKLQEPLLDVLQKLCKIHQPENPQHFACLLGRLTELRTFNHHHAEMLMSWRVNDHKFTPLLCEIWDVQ
T1 sequence (P19793 1-462 partner): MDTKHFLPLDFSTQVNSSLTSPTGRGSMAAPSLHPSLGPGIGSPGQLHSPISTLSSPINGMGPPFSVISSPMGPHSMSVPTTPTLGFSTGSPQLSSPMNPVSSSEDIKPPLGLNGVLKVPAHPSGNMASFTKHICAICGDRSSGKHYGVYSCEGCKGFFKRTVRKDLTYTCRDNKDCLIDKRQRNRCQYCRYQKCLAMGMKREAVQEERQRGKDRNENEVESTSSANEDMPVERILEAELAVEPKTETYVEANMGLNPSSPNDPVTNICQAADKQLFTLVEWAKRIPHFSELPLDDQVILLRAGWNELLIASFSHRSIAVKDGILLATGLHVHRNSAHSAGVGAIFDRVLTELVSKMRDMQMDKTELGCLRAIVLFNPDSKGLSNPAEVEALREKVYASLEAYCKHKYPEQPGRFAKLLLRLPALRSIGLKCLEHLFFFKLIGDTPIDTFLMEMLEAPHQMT
Type: cell-based
Method: Example B-1: In Vitro FXR Assay (TK)
CV-1 cells were seeded at a density of 2,000,000 cells in a T175 flask with DMEM+10% charcoal double-stripped FBS and incubated at 37° C. in 5% CO2 for 18 h (O/N).
After 18 h of incubation, the medium in the T175 flask was changed with fresh DMEM+10% charcoal super-stripped serum. In a polypropylene tube, 2500 μL OptiMEM (Life Technologies, Cat #31985-062) was combined with expression plasmids for hFXR, hRXR, TK-ECRE-luc and pCMX-YFP. The tube was then briefly vortexed and incubated at room temperature for 5 minutes. Transfection reagent (X-tremeGENE HP from Roche, Cat #06 366 236 001) was added to the OptiMEM/plasmid mixture vortexed and incubated at room temperature for 20 minutes. Following incubation, the transfection reagent/DNA mixture complex was added to cells in the T175 flask and the cells were incubated at 37° C. in 5% CO2 for 18 h (O/N).
Compounds were serially diluted in DMSO and added to transfected CV-1 cells. The cells were then incubated for 18 hrs. The next day cells were lysed and examined for luminescence.

| Compound | EC50 |
| --- | --- |
| COc1ccc([C@H]2CC[C@H](CN(c3cc(-c4coc(C5CC5)n4)ccn3)C(=O)[C@H]3CC[C@H](OC(=O)NCC(C)(C)CO)CC3)CC2)nc1C [Compound 1, trans-4-((4-(2-Cyclopropyloxazol-4-yl)pyridin-2-yl)((trans-4-(5-methoxy-6-methylpyridin-2-yl)cyclohexyl)methyl)carbamoyl)cyclohexyl (3-hydroxy-2,2-dimethylpropyl)carbamate] | ≤ 50 nM |
| COc1ccc([C@H]2CC[C@H](CN(c3cc(-c4coc(C(C)C)n4)ccn3)C(=O)[C@H]3CC[C@H](OC(=O)NCC(C)(C)CO)CC3)CC2)nc1C [Compound 1.01, trans-4-((4-(2-Isopropyloxazol-4-yl)pyridin-2-yl)((trans-4-(5-methoxy-6-methylpyridin-2-yl)cyclohexyl)methyl)carbamoyl) cyclohexyl (3-hydroxy-2,2-dimethylpropyl)carbamate] | 50 to 1000 nM |
| COc1ccc([C@H]2CC[C@H](CN(c3cc(-c4cnn(C(C)C)c4)ccn3)C(=O)[C@H]3CC[C@H](OC(=O)NCC(C)(C)CO)CC3)CC2)nc1C [Compound 1.02, trans-4-((4-(1-Isopropyl-1H-pyrazol-4-yl)pyridin-2-yl) ((trans-4-(5-methoxy-6-methylpyridin-2-yl)cyclohexyl)methyl)carbamoyl) cyclohexyl (3-hydroxy-2,2-dimethylpropyl)carbamate] | ≤ 50 nM |
| COc1ncc([C@H]2CC[C@H](CN(c3cc(-c4coc(C5CC5)n4)ccn3)C(=O)[C@H]3CC[C@H](OC(=O)N4CCN(C)CC4)CC3)CC2)cc1C [Compound 1.03, trans-4-((4-(2-Cyclopropyloxazol-4-yl)pyridin-2-yl)(((trans)-4-(6-methoxy-5-methylpyridin-3-yl)cyclohexyl)methyl)carbamoyl)cyclohexyl 4-methylpiperazine-1-carboxylate] | ≤ 50 nM |
| COc1ncc([C@H]2CC[C@H](CN(c3cc(-c4cnn(C(C)C)c4)ccn3)C(=O)[C@H]3CC[C@H](OC(=O)N4CC(N(C)C)C4)CC3)CC2)cc1C [Compound 1.04, trans-4-((4-(1-Isopropyl-1H-pyrazol-4-yl)pyridin-2-yl)(((trans)-4-(6-methoxy-5-methylpyridin-3-yl)cyclohexyl)methyl)carbamoyl) cyclohexyl 3-(dimethylamino)azetidine-1-carboxylate] | ≤ 50 nM |
| COc1ncc([C@H]2CC[C@H](CN(c3cc(-c4cnn(C(C)C)c4)ccn3)C(=O)[C@H]3CC[C@H](OC(=O)N4CCN(C)CC4)CC3)CC2)cc1C [Compound 1.05, trans-4-((4-(1-Isopropyl-1H-pyrazol-4-yl)pyridin-2-yl)(((trans)-4-(6-methoxy-5-methylpyridin-3-yl)cyclohexyl)methyl)carbamoyl) cyclohexyl 4-methylpiperazine-1-carboxylate] | 50 to 1000 nM |
| COc1ncc([C@H]2CC[C@H](CN(c3cc(-c4coc(C5CC5)n4)ccn3)C(=O)[C@H]3CC[C@H](OC(=O)N4CC(N(C)C)C4)CC3)CC2)cc1Cl [Compound 1.06, trans-4-((((trans)-4-(5-Chloro-6-methoxypyridin-3-yl)cyclohexyl)methyl)(4-(2-cyclopropyloxazol-4-yl)pyridin-2-yl)carbamoyl)cyclohexyl 3-(dimethylamino)azetidine-1-carboxylate] | ≤ 50 nM |
| COc1ncc([C@H]2CC[C@H](CN(c3cc(-c4coc(C5CC5)n4)ccn3)C(=O)[C@H]3CC[C@H](OC(=O)N4CCN(C)CC4)CC3)CC2)cc1Cl [Compound 1.07, trans-4-((((trans)-4-(5-Chloro-6-methoxypyridin-3-yl)cyclohexyl)methyl)(4-(2-cyclopropyloxazol-4-yl)pyridin-2-yl)carbamoyl)cyclohexyl 4-methylpiperazine-1-carboxylate] | ≤ 50 nM |
| COc1ncc([C@H]2CC[C@H](CN(c3cc(-c4cnn(C(C)C)c4)ccn3)C(=O)[C@H]3CC[C@H](OC(=O)N4CC(N(C)C)C4)CC3)CC2)cc1Cl [Compound 1.08, trans-4-((((trans)-4-(5-Chloro-6-methoxypyridin-3-yl)cyclohexyl)methyl)(4-(1-isopropyl-1H-pyrazol-4-yl)pyridin-2-yl)carbamoyl)cyclohexyl 3-(dimethylamino)azetidine-1-carboxylate] | ≤ 50 nM |
| COc1ncc([C@H]2CC[C@H](CN(c3cc(-c4cnn(C(C)C)c4)ccn3)C(=O)[C@H]3CC[C@H](OC(=O)N4CCN(C)CC4)CC3)CC2)cc1Cl [Compound 1.09, trans-4-((((trans)-4-(5-Chloro-6-methoxypyridin-3-yl)cyclohexyl)methyl)(4-(1-isopropyl-1H-pyrazol-4-yl)pyridin-2-yl)carbamoyl)cyclohexyl 4-methylpiperazine-1-carboxylate] | ≤ 50 nM |
| COc1ccc([C@H]2CC[C@H](CN(c3cc(-c4cnc(C5CC5)s4)ccn3)C(=O)[C@H]3CC[C@H](OC(=O)NCC(C)(C)O)CC3)CC2)cc1C [Compound 2, trans-4-((4-(2-Cyclopropylthiazol-5-yl)pyridin-2-yl)(((trans)-4-(4-methoxy-3-methylphenyl)cyclohexyl)methyl)carbamoyl)cyclohexyl (2-hydroxy-2-methylpropyl)carbamate] | ≤ 50 nM |

The remaining lines, values ahead:

| EC50 | Compound |
| --- | --- |
| ≤ 50 nM | COc1ccc([C@H]2CC[C@H](CN(c3cc(-c4cnc(C5CC5)o4)ccn3)C(=O)[C@H]3CC[C@H](OC(=O)N4CC(O)C4)CC3)CC2)cc1C [Compound 2.01, trans-4-((4-(2-Cyclopropyloxazol-5-yl)pyridin-2-yl)((trans-4-(4-methoxy-3-methylphenyl)cyclohexyl)methyl)carbamoyl)cyclohexyl 3-hydroxyazetidine-1-carboxylate] |
| ≤ 50 nM | COc1ccc([C@H]2CC[C@H](CN(c3cc(-c4coc(C5CC5)n4)ccn3)C(=O)[C@H]3CC[C@H](OC(=O)NCC(C)(C)O)CC3)CC2)cc1C [Compound 2.02, trans-4-((4-(2-Cyclopropyloxazol-4-yl)pyridin-2-yl)((trans-4-(4-methoxy-3-methylphenyl)cyclohexyl)methyl)carbamoyl) cyclohexyl(2-hydroxy-2-methylpropyl)carbamate] |
| ≤ 50 nM | COc1ccc([C@H]2CC[C@H](CN(c3cc(-c4cnn(C(C)C)c4)ccn3)C(=O)[C@H]3CC[C@H](OC(=O)N4CC(CO)C4)CC3)CC2)cc1C [Compound 2.03, trans-4-((4-(1-Isopropyl-1H-pyrazol-4-yl)pyridin-2-yl)(((trans)-4-(4-methoxy-3-methylphenyl)cyclohexyl)methyl)carbamoyl)cyclohexyl 3-(hydroxymethyl) azetidine-1-carboxylate] |
| ≤ 50 nM | COc1ccc([C@H]2CC[C@H](CN(c3cc(-c4cnn(C(C)C)c4)ccn3)C(=O)[C@H]3CC[C@H](OC(=O)NCC(C)(C)O)CC3)CC2)cc1C [Compound 2.04, trans-4-((4-(1-Isopropyl-1H-pyrazol-4-yl)pyridin-2-yl) ((trans-4-(4-methoxy-3-methylphenyl)cyclohexyl)methyl)carbamoyl) cyclohexyl(2-hydroxy-2-methylpropyl)carbamate] |
| ≤ 50 nM | COc1ccc([C@H]2CC[C@H](CN(c3cc(-c4cnn(C(C)C)c4)ccn3)C(=O)[C@H]3CC[C@H](OC(=O)NCC(C)(C)O)CC3)CC2)cc1Cl [Compound 2.05, (trans)-4-((((trans)-4-(3-Chloro-4-methoxyphenyl)cyclohexyl)methyl)(4-(1-isopropyl-1H-pyrazol-4-yl)pyridin-2-yl)carbamoyl)cyclohexyl (2-hydroxy-2-methylpropyl)carbamate] |
| ≤ 50 nM | COc1ccc([C@H]2CC[C@H](CN(c3cc(-c4cnn(C(C)C)c4)ccn3)C(=O)[C@H]3CC[C@H](OC(=O)N4CCN(C)CC4)CC3)CC2)cc1Cl [Compound 2.06, trans-4-(((trans-4-(3-Chloro-4-methoxyphenyl)cyclohexyl)methyl)(4-(1-isopropyl-1H-pyrazol-4-yl)pyridin-2-yl)carbamoyl)cyclohexyl 4-methylpiperazine-1-carboxylate] |
